Where a SMILES comes first, the peptide text is derived from it. [ ]: non-standard residue; d: D form. The star is where a group is joined. Sta = CC(C)C[C@H](N)[C@@H](O)CC(=O)O; Isovaleryl = CC(C)CC(=O)*
Columns and labels:
rOaAEP1b [1] = assay: Cyclization assay of linear peptides followed by MALDI MS; type: biochemical, Oldenlandia affinis
Experimental: Linear target peptides (280 μM) were incubated with rOaAEP1b (12 μg ml^−1 total protein unless otherwise indicated) in activity buffer. The reaction was allowed to proceed for up to 22 h at room temperature and was analysed by matrix-assisted laser desorption/ionization MS (MALDI MS), RP-HPLC or NMR as appropriate.
To confirm the presence of cyclic product, R1 derivatives processed by rOaAEP1b were subsequently digested with endoGlu-C (25 μg ml^−1) in reaction buffer (50 mM Tris-HCl, 0.5 mM Glu–Glu, pH 8) such that the final dilution of the cyclization mix was 1:4. The reaction was allowed to proceed for 18 h at 37 °C before analysis by MALDI MS.
Cyclization of linear target peptides was monitored by MALDI MS. The reaction mixture (10–20 μl) was desalted using C18 zip tips and eluted in 4 μl 50% acetonitrile, 0.1% trifluoroacetic acid (TFA). A saturated MALDI matrix solution (α–cyano-4-hyroxycinnamic acid) prepared in 95% acetonitrile, 0.1% TFA was diluted 1:22 such that the final matrix solution comprised 90% acetonitrile, 0.1% TFA and 1 mM NH4H2PO4. Eluted samples were mixed 1:4 with the MALDI matrix, spotted onto a MALDI plate and analysed by an Ultraflex III TOF/TOF (Bruker) in positive reflector mode.

rOaAEP1b [2] = assay: Inhibition assay, enzyme activity against wt IQF peptide; type: biochemical, Oldenlandia affinis; conditions: 40 min pre-incubation, wt IQF peptide 11 μM, 90 min
Experimental: To investigate the impact of inhibitors on enzyme activity against the wt IQF peptide, rOaAEP1b (4.4 μg ml^–1 total protein) was incubated with the indicated concentration of E64, Ac-YVAD-CHO, pepstatin A and iodoacetamide for 40 min before addition to the substrate (11 μM). Enzyme activity against the wt IQF peptide was then assessed as described above.
Supplementary Figure 3: rOaAEP1b activity against the wt IQF peptide in the presence of protease inhibitors. rOaAEP1b (~4.4 µg ml-1 total protein) was allowed to cleave the wt IQF peptide (11 µM) and fluorescence intensity was recorded every minute for 90 min. The enzyme activity in the presence of inhibitors is reported relative to a no inhibitor control at the 90 min time point. Each data point represents the average of two technical replicates and error bars report the range.
(1 picture or pasted object on this page, not shown here)

[3] = assayed against a small substrate; cited from earlier work
Experimental: The activity of rOaAEP1b against IQF peptides representing wt and mutant versions of the native kB1 C-terminal cleavage site was determined (Table 1; Supplementary Fig. 4a). […] This observation is consistent with the lack of cyclic product generated when the corresponding mutation was introduced in planta. Kinetic parameters (Vmax, Km and kcat) are reported where applicable (Table 1). The tur ...

## VFAEFLPLFSKFGSRMHILK [R1, anti-malarial peptide structurally unrelated to cyclotides]
rOaAEP1b [1]; 22 h, MALDI MS
  processing by rOaAEP1b of R1 peptides lacking a full recognition sequence: No processing
rOaAEP1b [1]; 22 h post addition of rOaAEP1b, MALDI MS, cyclic product confirmed by endoGlu-C digestion
  cyclization by rOaAEP1b following the addition of N- and C-terminal AEP recognition sequences: efficiently cyclized
rOaAEP1b [1]; rOaAEP1b
  cyclization efficiency: ~100%

## NC(=O)CI [iodoacetamide]
rOaAEP1b [2]; iodoacetamide 1 mM, 4.4 μg ml^-1 total protein
  effect of inhibitor on rOaAEP1b activity: inhibited

## Ac-YVAD-CHO
rOaAEP1b [2]; Ac-YVAD-CHO 500 μM
  effect of inhibitor on rOaAEP1b activity: poor inhibitor

## CC(C)C[C@H](NC(=O)[C@H]1O[C@@H]1C(=O)O)C(=O)NCCCCN=C(N)N [E64]
rOaAEP1b [2]; E64 250 μM
  effect of inhibitor on rOaAEP1b activity: not affected

## CC(C)CC(=O)N[C@H](C(=O)N[C@H](C(=O)N[C@@H](CC(C)C)[C@@H](O)CC(=O)N[C@@H](C)C(=O)N[C@@H](CC(C)C)[C@@H](O)CC(=O)O)C(C)C)C(C)C [pepstatin A] (Isovaleryl-VV[Sta]A[Sta]-OH)
rOaAEP1b [2]; pepstatin A 10 μM
  effect of inhibitor on rOaAEP1b activity: not affected

B1: kB1L31A: kB1 precursor with a Leu31Ala mutation (peptide, UniProt P56254 23-124, looked up, variant L31A)
pro-form: SELSDSHKTTLVNEIAEKMLQRKILDGVEATLVTDVAEKMFLRKMKAEAKTSETADQVFLKQLQLKGLPVCGETCVGGTCNTPGCTCSWPVCTRNGAPSLAA
modifications: pro-form
notes: kB1 precursor with a Leu31Ala mutation
rOaAEP1b [1]; 280 μM peptide, pH 5, room temperature, 1, 5 and 22 h, MALDI MS, three technical replicates
  rOaAEP1b-mediated processing of modified kB1 and kB2 precursors over time: cyclized far more slowly than the wt precursor

B2: recombinant human legumain: recombinant human AEP (protein, UniProt Q99538 18-323, looked up)
Legumain: VPIDDPEDGGKHWVVIVAGSNGWYNYRHQADACHAYQIIHRNGIPDEQIVVMMYDDIAYSEDNPTPGIVINRPNGTDVYQGVPKDYTGEDVTPQNFLAVLRGDAEAVKGIGSGKVLKSGPQDHVFIYFTDHGSTGILVFPNEDLHVKDLNETIHYMYKHKMYRKMVFYIEACESGSMMNHLPDNINVYATTAANPRESSYACYYDEKRSTYLGDWYSVNWMEDSDVEDLTKETLHKQYHLVKSHTNTSHVMQYGNKTISTMKVMQFQGMKRKASSPVPLPPVTHLDLTPSPDVPLTIMKRKLMNTN
[3]
  turnover rate (kcat): ~8 s⁻¹

Reference: PMC4703859, “Efficient backbone cyclization of linear peptides by a recombinant asparaginyl endopeptidase” (Nature Communications, 2015)
